Measurements: ChEMBL document CHEMBL1127622, “Tyrosine kinase inhibitors. 2. Synthesis of 2,2'-dithiobis(1H-indole-3-alkanamides) and investigation of their inhibitory activity against epidermal growth factor receptor and pp60v-src protein tyrosine kinases” (J Med Chem, 1994)

Each molecule was assayed on NIH3T3 (assay: Compound was tested for the concentration necessary to inhibit swiss 3T3 Mouse Fibroblast cell growth rate by 50%.).
Assay type: functional, cell-based

Row | SMILES | IC50 [µM]
1 | NC(Cc1c(SSc2[nH]c3ccccc3c2CC(N)C(=O)NCc2ccccc2)[nH]c2ccccc12)C(=O)NCc1ccccc1 (configuration not stated) | 5.3
2 | O=C(O)CCc1c(SSc2[nH]c3ccccc3c2CCC(=O)O)[nH]c2ccccc12 | 60
3 | O=C(Cc1c(SSc2[nH]c3ccccc3c2CC(=O)NCc2ccccc2)[nH]c2ccccc12)NCc1ccccc1 | 2.7
4 | O=C(CCc1c(SSc2[nH]c3ccccc3c2CCC(=O)NCc2ccccc2)[nH]c2ccccc12)NCc1ccccc1 | 5.9

The molecules below were run against Epidermal growth factor receptor (Homo sapiens, UniProt P00533) (assay: Inhibition of the tyrosine kinase activity of the human epidermal growth factor receptor (EGFR)).
Sequence of Epidermal growth factor receptor (P00533 whole entry): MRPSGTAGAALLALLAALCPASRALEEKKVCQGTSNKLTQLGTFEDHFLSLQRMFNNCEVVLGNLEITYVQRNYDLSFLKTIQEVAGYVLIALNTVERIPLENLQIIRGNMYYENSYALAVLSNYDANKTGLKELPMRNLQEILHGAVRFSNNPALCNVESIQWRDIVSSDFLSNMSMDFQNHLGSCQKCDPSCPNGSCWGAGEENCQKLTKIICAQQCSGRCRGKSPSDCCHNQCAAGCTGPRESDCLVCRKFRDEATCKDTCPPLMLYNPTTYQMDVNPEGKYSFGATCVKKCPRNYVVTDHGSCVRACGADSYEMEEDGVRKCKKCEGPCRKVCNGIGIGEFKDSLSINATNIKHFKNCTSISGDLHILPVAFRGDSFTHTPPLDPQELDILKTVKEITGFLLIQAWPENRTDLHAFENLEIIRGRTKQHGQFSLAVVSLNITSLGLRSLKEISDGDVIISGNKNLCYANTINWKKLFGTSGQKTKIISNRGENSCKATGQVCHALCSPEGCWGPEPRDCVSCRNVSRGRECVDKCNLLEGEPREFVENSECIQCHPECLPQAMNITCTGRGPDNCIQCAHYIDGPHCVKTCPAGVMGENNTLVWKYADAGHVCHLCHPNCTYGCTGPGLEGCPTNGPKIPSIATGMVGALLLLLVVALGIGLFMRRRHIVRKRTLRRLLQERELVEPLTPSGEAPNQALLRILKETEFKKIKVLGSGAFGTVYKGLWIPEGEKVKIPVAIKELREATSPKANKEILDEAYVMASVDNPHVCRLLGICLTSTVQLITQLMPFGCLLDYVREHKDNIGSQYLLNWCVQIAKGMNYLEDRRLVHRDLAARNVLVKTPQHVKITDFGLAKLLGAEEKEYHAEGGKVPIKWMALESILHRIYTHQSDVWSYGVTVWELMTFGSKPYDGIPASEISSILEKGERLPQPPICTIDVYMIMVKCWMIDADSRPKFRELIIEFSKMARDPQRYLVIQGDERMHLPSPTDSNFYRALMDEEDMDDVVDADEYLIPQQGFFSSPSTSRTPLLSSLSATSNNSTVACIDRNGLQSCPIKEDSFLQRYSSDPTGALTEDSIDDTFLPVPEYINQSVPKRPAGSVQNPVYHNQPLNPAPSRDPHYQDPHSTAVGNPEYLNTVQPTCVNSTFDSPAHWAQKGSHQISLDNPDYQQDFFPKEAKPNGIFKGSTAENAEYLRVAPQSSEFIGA

Row | SMILES | IC50 [µM]
5 | O=C(CC1C(=S)Nc2ccccc21)NCc1ccccc1 (configuration not stated) | 100
6 | O=C(CCCc1c(SSc2[nH]c3ccccc3c2CCCC(=O)NCc2ccccc2)[nH]c2ccccc12)NCc1ccccc1 | 100
7 | N#CCc1c(SSc2[nH]c3ccccc3c2CC#N)[nH]c2ccccc12 | 32
8 | O=C(CCc1c(SSc2[nH]c3ccccc3c2CCC(=O)NCc2ccc(C(=O)O)c(O)c2)[nH]c2ccccc12)NCc1ccc(C(=O)O)c(O)c1 | 8.5
9 | O=[N+]([O-])CCc1c(SSc2[nH]c3ccccc3c2CC[N+](=O)[O-])[nH]c2ccccc12 | 89
10 | CC(=O)NC(Cc1c(SSc2[nH]c3ccccc3c2CC(NC(C)=O)C(=O)NCc2ccccc2)[nH]c2ccccc12)C(=O)NCc1ccccc1 (configuration not stated) | 51
11 | COC(=O)c1ccc(CNC(=O)CCc2c(SSc3[nH]c4ccccc4c3CCC(=O)NCc3ccc(C(=O)OC)c(O)c3)[nH]c3ccccc23)cc1O | 100
12 | N#CCCc1c(SSc2[nH]c3ccccc3c2CCC#N)[nH]c2ccccc12 | 47
13 | O=C(NCc1ccccc1)C(O)Cc1c(SSc2[nH]c3ccccc3c2CC(O)C(=O)NCc2ccccc2)[nH]c2ccccc12 (configuration not stated) | 14
14 | O=C(CCc1c(SSc2[nH]c3ccccc3c2CCC(=O)NCc2ccc(C(=O)O)cc2)[nH]c2ccccc12)NCc1ccc(C(=O)O)cc1 | 7.4
15 | O=C(NCc1ccccc1)C(Cc1c(SSc2[nH]c3ccccc3c2CC(NC(=O)C(F)(F)F)C(=O)NCc2ccccc2)[nH]c2ccccc12)NC(=O)C(F)(F)F (configuration not stated) | > 100

Now from value to molecule:

Row | IC50 [µM] | SMILES
16 | 100 | O=C(CCC1C(=S)Nc2ccccc21)NCc1ccccc1 (configuration not stated)
17 | 28 | CC(=O)OC(Cc1c(SSc2[nH]c3ccccc3c2CC(OC(C)=O)C(=O)NCc2ccccc2)[nH]c2ccccc12)C(=O)NCc1ccccc1 (configuration not stated)
18 | 25 | O=C(CCc1c(SSc2[nH]c3ccccc3c2CCC(=O)Nc2ccccc2)[nH]c2ccccc12)Nc1ccccc1
19 | 24 | O=C(CCc1c(SSc2[nH]c3ccccc3c2CCC(=O)NCCc2ccccc2)[nH]c2ccccc12)NCCc1ccccc1
20 | 12 | CN(C)C(=O)CCc1c(SSc2[nH]c3ccccc3c2CCC(=O)N(C)C)[nH]c2ccccc12
21 | 9.4 | CNC(=O)CCc1c(SSc2[nH]c3ccccc3c2CCC(=O)NC)[nH]c2ccccc12
22 | 7.6 | NC(Cc1c(SSc2[nH]c3ccccc3c2CC(N)C(=O)NCc2ccccc2)[nH]c2ccccc12)C(=O)NCc1ccccc1 (configuration not stated)
